The values that follow are results of earlier work, collected in US20250194589A1, “AGROCHEMICAL EMULSIFIABLE COMPOSITION” (priority 2022, published 2025).

Assay in data set [1]: not given
This is another data set of the same source.

The mark [2] stands for this setting: measurement method: Flask shaking.

Read-outs that look alike come from different tables or passages of the source.

For `ClC1=C(Cl)C(Cl)(C2(Cl)C(Cl)=C(Cl)C(Cl)=C2Cl)C(Cl)=C1Cl` [Dienochlor], the LogPow (measurement method not printed) is on record as 7.2. Also, in data set [1] (25° C.), the Degree of water-solubility was 26 ng/mL. Take `Cc1c(F)c(F)c(COC(=O)[C@@H]2[C@H](/C=C(\Cl)C(F)(F)F)C2(C)C)c(F)c1F` (racemic) [Tefluthrin]: the LogPow (measurement method not printed) is listed as 6.4. Turning to `CC1(C)C(C=C(Cl)Cl)C1C(=O)OCc1cccc(Oc2ccccc2)c1` (stereo not drawn) [Permethrin], the LogPow under setting [2] is recorded as 6.36. As for `CCCSP(=O)(OCC)Oc1ccc(Br)cc1Cl` (stereo not drawn) [Profenofos], where the note is “measurement method not printed”, the LogPow is listed as 4.435. For `COC(c1ccc(N(C(=O)c2c(C)nn(C)c2C)C(=O)C(C)C)cc1CC(C)C)(C(F)(F)F)C(F)(F)F` [Pyflubumide], the LogPow under setting [2] is on record as 5.34. Further, the Degree of water-solubility in data set [1] (20° C.) is 270 ng/mL. Take `CCOc1ccc(C(C)(C)COCc2cccc(Oc3ccccc3)c2)cc1` [Etofenprox]: the LogPow (measurement method: HPLC) is 6.9. The Degree of water-solubility in data set [1] (20° C.) is 22.5 ng/mL. Regarding `Cc1nn(C)c(/C(OC(=O)C(C)(C)C)=C(\C#N)c2ccc(C(C)(C)C)cc2)c1C` [Cyenopyrafen], the LogPow (measurement method: HPLC) is on record as 5.6. Further, the Degree of water-solubility in data set [1] (20° C.) is 300 ng/mL. As for `COCCOC(=O)C(C#N)(C(=O)c1ccccc1C(F)(F)F)c1ccc(C(C)(C)C)cc1` (stereo not drawn) [Cyflumetofen], the LogPow (measurement method: HPLC) was 4.3. Regarding `CC(C)C(C(=O)OC(C#N)c1cccc(Oc2ccccc2)c1)c1ccc(Cl)cc1` (stereo not drawn) [Fenvalerate], the LogPow (measurement method not printed) is given as 6.53.

For the compound Milbemectin [Milbemectin (M.A4)], under setting [2], the LogPow is more than 5.06. Also, the Degree of water-solubility in data set [1] (20° C.) is 7200 ng/mL.

Consider `CCOc1cc(C(C)(C)C)ccc1C1COC(c2c(F)cccc2F)=N1` (stereo not drawn) [Etoxazole], for which the LogPow (measurement method not printed) is 5.52 ± 0.58. In addition, the Degree of water-solubility in data set [1] (20° C.) was 70.4 ng/mL.

In the case of `CCC(C)(C)C(=O)OC1=C(c2ccc(Cl)cc2Cl)C(=O)OC12CCCCC2` [Spirodiclofen], the LogPow under setting [2] was 5.83. Besides, the Degree of water-solubility in data set [1] (20° C.) is 50 ng/mL. Take `CCc1nn(C)c(C(=O)NCc2ccc(Oc3ccc(C)cc3)cc2)c1Cl` [Tolfenpyrad]: the LogPow result is, setting by setting: (measurement method not printed) “Tolfenpyrad (LogPow = 5.61)”; (measurement method not printed, listed as tolfenpyrad) 5.61; under setting [2], 5.6. Also, in data set [1] (25° C.), the Degree of water-solubility was 87 ng/mL. In the case of `CCc1nn(C)c(C(=O)NCc2ccc(C(C)(C)C)cc2)c1Cl` [Tebufenpyrad], the LogPow under setting [2] is reported as 4.93. With `CCOP(=O)(SC(C)CC)SC(C)CC` (stereo not drawn) [Cadusafos], the LogPow (measurement method: HPLC) is reported as 4.08.

Turning to `CCOP(=S)(OCC)Oc1nc(Cl)c(Cl)cc1Cl` [Chlorpyrifos], the LogPow under setting [2] is on record as 4.70. Also, the Degree of water-solubility in data set [1] (25° C.) is 941 ng/mL. With `Cc1cc(C)c(C2=C(OC(=O)CC(C)(C)C)C3(CCCC3)OC2=O)c(C)c1` [Spiromesifen], for the setting “measurement method: HPLC”, the LogPow is recorded as 4.55. The Degree of water-solubility in data set [1] (20° C.) is 130 ng/mL. Turning to `CC1(C)C(C=C(Cl)Cl)C1C(=O)OC(C#N)c1ccc(F)c(Oc2ccccc2)c1` (stereo not drawn) [Cyfluthrin], for the setting “measurement method not printed”, the LogPow is reported as 6.00. Take `FC(F)(F)c1ccc(OCCCOc2c(Cl)cc(OCC=C(Cl)Cl)cc2Cl)nc1` [Pyridalyl]: the LogPow (measurement method: HPLC) is on record as 8.1. In data set [1] (25° C.), the Degree of water-solubility was 0.15 ng/mL.

Pyrethrin: under “measurement method not printed”, the LogPow is 5.6. The Degree of water-solubility in data set [1] (temperature not given) is 9000 ng/mL.

Regarding Emamectin benzoate, the LogPow (measurement method not printed) was 5.7. Regarding Abamectin, under setting [2], the LogPow is recorded as 4.4 ± 0.3. For the same compound, the Degree of water-solubility in data set [1] (25° C.) is 1210 ng/mL.

For `CCCSP(=S)(OCC)Oc1ccc(Cl)cc1Cl` (stereo not drawn) [Prothiofos], the LogPow under setting [2] was 5.67. For `CCCOc1cc(C(F)(F)F)ccc1O[C@H]1C[C@H]2CCC[C@@H](C1)N2Oc1ccc(C(F)(F)F)cn1` [Acynonapyr], under “measurement method not printed”, the LogPow is on record as 6.5. The Degree of water-solubility in data set [1] (20° C.) was 0.889 ng/mL. In the case of `Cc1ccc(/N=C/N(C)/C=N/c2ccc(C)cc2C)c(C)c1` [Amitraz], the LogPow (measurement method not printed) is 5.5. In data set [1] (25° C.), the Degree of water-solubility was 94 ng/mL. In the case of `CC(C)[C@H](Nc1ccc(C(F)(F)F)cc1Cl)C(=O)OC(C#N)c1cccc(Oc2ccccc2)c1` (stereo partly drawn) [Fluvalinate], the LogPow under setting [2] was 4.26. In addition, the Degree of water-solubility in data set [1] (20° C.) is 1.12 ng/mL. As to Lepimectin, under “measurement method: HPLC”, the LogPow is 6.5. Moreover, the Degree of water-solubility in data set [1] (25° C.) is 103.47 ng/mL. In the case of `Clc1ccccc1-c1nnc(-c2ccccc2Cl)nn1` [Clofentezine], the LogPow (measurement method: HPLC) is on record as 4.1. Regarding `O=C(NC(=O)c1c(F)cccc1F)Nc1ccc(OC(F)(F)C(F)OC(F)(F)F)c(Cl)c1` (stereo not drawn) [Novaluron], the LogPow (measurement method: HPLC) is on record as 4.3. Further, the Degree of water-solubility in data set [1] (20° C.) is 3 ng/mL. Regarding `C/C(=N\C#N)N(C)Cc1ccc(Cl)nc1` [Acetamiprid, acetamiprid], the LogPow result reads like this: (measurement method not printed) “Acetamiprid (LogPow = 0.8)”; (measurement method not printed, listed as acetamiprid) 0.8. As to `CON=CNC(=O)c1ccc(C2=NOC(c3cc(Cl)cc(Cl)c3)(C(F)(F)F)C2)cc1C` (stereo not drawn) [Fluxametamide], where the note is “measurement method: HPLC”, the LogPow was 5.0. The Degree of water-solubility in data set [1] (20° C.) was 54 ng/mL. `Cc1c(COC(=O)[C@@H]2[C@H](/C=C(\Cl)C(F)(F)F)C2(C)C)cccc1-c1ccccc1` (racemic) [Bifenthrin]: the LogPow (measurement method: HPLC) is recorded as 6.6. Moreover, the Degree of water-solubility in data set [1] (20-25° C.) is less than 0.1 ng/mL. On to `CC(C)[C@H](C(=O)OC(C#N)c1cccc(Oc2ccccc2)c1)c1ccc(OC(F)F)cc1` (stereo partly drawn) [Flucythrinate], for which the LogPow (measurement method not printed) is recorded as 4.74.

Take `CC1(C)[C@H](C(=O)O[C@H](C#N)c2cccc(Oc3ccccc3)c2)[C@@H]1/C=C\C(=O)OC(C(F)(F)F)C(F)(F)F` [Acrinathrin]: the LogPow under setting [2] is on record as 5.6. As for `O=C(NC(=O)c1c(F)cccc1F)Nc1cc(Cl)c(OC(F)(F)C(F)C(F)(F)F)cc1Cl` (stereo not drawn) [Lufenuron], the LogPow (measurement method: HPLC) is 5.12. Besides, the Degree of water-solubility in data set [1] (25° C.) was less than 60 ng/mL. As to `CCCCN(CCCC)SN(C)C(=O)Oc1cccc2c1OC(C)(C)C2` [Carbosulfan], the LogPow (measurement method not printed) is 5.45. Besides, the Degree of water-solubility in data set [1] (25° C.) was 3000 ng/mL.

Turning to Milbemectin [Milbemectin (M.A3)], the LogPow under setting [2] was more than 4.94. Besides, in data set [1] (20° C.), the Degree of water-solubility was 880 ng/mL. Take `COC(=O)N(C(=O)N1CO[C@@]2(C(=O)OC)Cc3cc(Cl)ccc3C2=N1)c1ccc(OC(F)(F)F)cc1` [Indoxacarb]: the LogPow under setting [2] was 4.65. Further, the Degree of water-solubility in data set [1] (25° C.) was 200 ng/mL. Consider `CCOC(=O)CCN(SN(C)C(=O)Oc1cccc2c1OC(C)(C)C2)C(C)C` [Benfuracarb], for which, under setting [2], the LogPow is given as 4.22. As for `CC(C)(C)c1ccc(CCOc2ncnc3ccccc23)cc1` [Fenazaquin], where the note is “measurement method not printed”, the LogPow is on record as 5.71. As to `CC1(C)C(/C=C(\Cl)C(F)(F)F)C1C(=O)OC(C#N)c1cccc(Oc2ccccc2)c1` (stereo not drawn) [Cyhalothrin], under “measurement method not printed”, the LogPow was 6.9. The Degree of water-solubility in data set [1] (20° C.) was 4.2 ng/mL.
